The structures appear in SMILES notation. Bounds are passed on as bounds.

Assay [1] has as its target T1, glutathione S-transferase (GST)-linked full-length human Syk protein (Homo sapiens, UniProt P43405).
T1 construct: glutathione S-transferase (GST)-linked full-length human Syk protein; purchased Carna Biosciences; host or cells: Baculovirus expression system
Nature of the assay: Syk enzyme assay. It counts as biochemical. As to conditions: 0.83 nM Syk, time-resolved fluorescence; read-out: IC50 of Syk-inhibitory activity. In short, it runs like this:
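Phosphotyrosine on a biotin-peptide substrate (0.5 μM) was read by time-resolved fluorescence at 615 and 665 nm with Eu-anti-pTyr antibody and APC-streptavidin after 1 h EDTA stop.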

Assay [2] has as its system THP-1 cells (TNFα secretion on human IgG-coated plate). The assay is described as follows: TNFα generation assay. It is filed as cell-based. As to conditions: IFN-γ differentiated THP-1 cells, 7 hours, AlphaLISA, read-out: IC50 of TNFα generation inhibitory activity. The method, then:
THP-1 cells (2×10^5 cells/ml), which were human monocytoid cells, were cultured in the presence of 10 ng/ml IFN-γ (Roche) for 2 days, and they were induced to differentiate into macrophage-like cells. The differentiation-induced THP-1 cells were recovered, and the cells (1×10^6 cell/ml) were then allowed to react with a predetermined concentration of test compound at room temperature for 30 minutes. On the other hand, 100 μl of human IgG (10 μg/ml, SIGMA-ALDRICH) diluted with PBS was added to a 96-well plate, and it was then incubated at room temperature overnight. Thereafter, the resultant was washed with PBS twice to produce a human IgG-coated plate. A cell fluid that contained a compound was plated on the obtained human IgG-coated plate (5×10^4 cells/well), and it was then cultured for 7 hours. Thereafter, the cultured solution was recovered, and the amount of TNFα secreted into the culture solution was then measured by the AlphaLISA method (PerkinElmer).

As for `COc1nn(C)c2c(F)cc(Nc3nc(N[C@@H]4CCOC[C@@H]4N)c(F)cc3C(N)=O)cc12` [Example 2-211, 6-(((3R,4R)-3-aminotetrahydro-2H-pyran-4-yl)amino)-5-fluoro-2-((7-fluoro-3-methoxy-1-methyl-1H-indazol-5-yl)amino)nicotinamide], the IC50 was below 10 nM in assay [1] and 65 to 130 nM in assay [2].

On to `CCOC[C@@H](Nc1nc(Nc2ccc3c(cnn3C)c2)c(C(N)=O)cc1F)[C@H](C)N` [Example 2-179, 6-(((2S,3S)-3-amino-1-ethoxybutan-2-yl)amino)-5-fluoro-2-((1-methyl-1H-indazol-5-yl)amino)nicotinamide], for which the IC50 was 10 to 50 nM in assay [1] and 130 to 200 nM in assay [2].

Consider `CNc1nn(C)c2ccc(Nc3nc(N[C@@H]4CCCC[C@@H]4N)c(F)cc3C(N)=O)cc12` [Example 2-496, 6-(((1R,2S)-2-aminocyclohexyl)amino)-5-fluoro-2-((1-methyl-3-(methylamino)-1H-indazol-5-yl)amino)nicotinamide], for which the IC50 in assay [1] is below 10 nM; in assay [2], 130 to 200 nM.

`CC[C@@H](Nc1nc(Nc2cccc(-n3ccnn3)c2)c(C(N)=O)cc1F)[C@H](C)N` [Example 2-476, 2-((3-(1H-1,2,3-triazol-1-yl)phenyl)amino)-6-(((2S,3R)-2-aminopentan-3-yl)amino)-5-fluoronicotinamide]: the results for the IC50 in assay [1] and in assay [2] were below 10 nM and 65 to 130 nM, respectively.

Take `COc1nn(C)c2c(F)cc(Nc3nc(N[C@@H]4CCCC[C@@H]4N)c(F)cc3C(N)=O)cc12` [Example 2-150, 6-(((1R,2S)-2-aminocyclohexyl)amino)-5-fluoro-2-((7-fluoro-3-methoxy-1-methyl-1H-indazol-5-yl)amino)nicotinamide]: the IC50 in assay [1] was below 10 nM; in assay [2], 130 to 200 nM.

As for `CC[C@@H](Nc1nc(Nc2cccc(C(C)=O)c2)c(C(N)=O)cc1F)[C@H](C)N` [Example 2-478, 2-((3-acetylphenyl)amino)-6-(((2S,3R)-2-aminopentan-3-yl)amino)-5-fluoronicotinamide], the IC50 in assay [1] was below 10 nM; in assay [2] it was 65 to 130 nM.

With `CC[C@H](N)[C@@H](C)Nc1nc(Nc2ccc3c(c2)c(OC)nn3CCOC)c(C(N)=O)cc1F` [Example 2-129, 6-(((2R,3S)-3-aminopentan-2-yl)amino)-5-fluoro-2-((3-methoxy-1-(2-methoxyethyl)-1H-indazol-5-yl)amino)nicotinamide], the IC50 was 10 to 50 nM in assay [1] and 130 to 200 nM in assay [2].

For `CCn1ncc2cc(Nc3nc(N[C@H](C4CCC4)[C@H](C)N)c(F)cc3C(N)=O)ccc21` [Example 2-9], the IC50 in assay [1] is below 10 nM; in assay [2], 65 to 130 nM.

As for `Cc1cc(C)cc(Nc2nc(N[C@H](C3CC3)[C@H](C)N)c(F)cc2C(N)=O)c1` [Example 2-45, 6-(((1R,2S)-2-amino-1-cyclopropylpropyl)amino)-2-((3,5-dimethylphenyl)amino)-5-fluoronicotinamide], the figures for the IC50 in assay [1] and in assay [2] were below 10 nM and 130 to 200 nM, respectively.

As to `COc1ncc(Nc2nc(N[C@@H]3CCOC[C@@H]3N)c(F)cc2C(N)=O)cc1-n1ccnn1` [Example 2-215, 6-(((3R,4R)-3-aminotetrahydro-2H-pyran-4-yl)amino)-5-fluoro-2-((6-methoxy-5-(1H-1,2,3-triazol-1-yl)pyridin-3-yl)amino)nicotinamide], the IC50 in assay [1] was in the range of 10 to 50 nM; in assay [2] it was 130 to 200 nM.

`C[C@H](N)[C@H](Nc1nc(Nc2cccc3c2cnn3CC(F)F)c(C(N)=O)cc1F)C1CC1` [Example 2-75, 6-(((1R,2S)-2-amino-1-cyclopropylpropyl)amino)-2-((1-(2,2-difluoroethyl)-1H-indazol-4-yl)amino)-5-fluoronicotinamide]: the IC50 in assay [1] is below 10 nM; in assay [2] it was 130 to 200 nM.

As for `CC[C@@H](Nc1nc(Nc2cnc(C)c(F)c2)c(C(N)=O)cc1F)[C@H](C)N` [Example 2-222, 6-(((2S,3R)-2-aminopentan-3-yl)amino)-5-fluoro-2-((5-fluoro-6-methylpyridin-3-yl)amino)nicotinamide], the IC50 lay in the range of 10 to 50 nM in assay [1] and 130 to 200 nM in assay [2].

On to `COc1nn(C)c2ccc(Nc3nc(N[C@@H](CN)CC(C)C)c(F)cc3C(N)=O)cc12` [Example 2-78, (R)-6-((1-amino-4-methylpentan-2-yl)amino)-5-fluoro-2-((3-methoxy-1-methyl-1H-indazol-5-yl)amino)nicotinamide], for which the IC50 in assay [1] is below 10 nM; in assay [2] it was 65 to 130 nM.

`COc1cc(Nc2nc(N[C@H](C3CC3)[C@H](C)N)c(F)cc2C(N)=O)cc(OC)c1` [Example 2-47, 6-(((1R,2S)-2-amino-1-cyclopropylpropyl)amino)-2-((3,5-dimethoxyphenyl)amino)-5-fluoronicotinamide]: the IC50 was below 10 nM in assay [1] and 65 to 130 nM in assay [2].

`CC[C@@H](Nc1nc(Nc2cccc(C)c2)c(C(N)=O)cc1F)[C@H](C)N` [Example 2-474, 6-(((2S,3R)-2-aminopentan-3-yl)amino)-5-fluoro-2-(m-tolylamino)nicotinamide]: the values for the IC50 in assay [1] and in assay [2] were below 10 nM and 130 to 200 nM, respectively.

For `CCn1ncc2cc(Nc3nc(N[C@H](c4ccccc4F)[C@H](C)N)c(F)cc3C(N)=O)ccc21` [Example 2-410, 6-(((1R,2S)-2-amino-1-(2-fluorophenyl)propyl)amino)-2-((1-ethyl-1H-indazol-5-yl)amino)-5-fluoronicotinamide], the IC50 in assay [1] is below 10 nM; in assay [2], 65 to 130 nM.

Regarding `COCCn1nc(C)c2cc(Nc3nc(N[C@H](CC(C)C)[C@H](C)N)c(F)cc3C(N)=O)ccc21` [Example 2-134, 6-(((2S,3R)-2-amino-5-methylhexan-3-yl)amino)-5-fluoro-2-((1-(2-methoxyethyl)-3-methyl-1H-indazol-5-yl)amino)nicotinamide], the IC50 in assay [1] was below 10 nM; in assay [2], 130 to 200 nM.

`COc1cc(Nc2nc(N[C@H](c3ccc(F)cc3)[C@H](C)N)c(F)cc2C(N)=O)cc(OC)c1` [Example 2-269, 6-(((1R,2S)-2-amino-1-(4-fluorophenyl)propyl)amino)-2-((3,5-dimethoxyphenyl)amino)-5-fluoronicotinamide]: the IC50 is below 10 nM in assay [1] and 65 to 130 nM in assay [2].

`Cc1cccc(Nc2nc(N[C@H](C3CCC3)[C@H](C)N)c(F)cc2C(N)=O)c1` [Example 2-25, 6-(((1R,2S)-2-amino-1-cyclobutylpropyl)amino)-5-fluoro-2-(m-tolylamino)nicotinamide]: the values for the IC50 in assay [1] and in assay [2] were below 10 nM and 130 to 200 nM, respectively.

As to `CCOC[C@@H](Nc1nc(Nc2cc(OC)cc(OC)c2)c(C(N)=O)cc1F)[C@H](C)N` [Example 2-268, 6-(((2S,3S)-3-amino-1-ethoxybutan-2-yl)amino)-2-((3,5-dimethoxyphenyl)amino)-5-fluoronicotinamide], the IC50 in assay [1] fell in the range of 10 to 50 nM; in assay [2], 130 to 200 nM.

For the compound `COC[C@@H](Nc1nc(Nc2ccc3c(c2)c(C)nn3C)c(C(N)=O)cc1F)[C@H](C)N` [Example 2-196, 6-(((2S,3S)-3-amino-1-methoxybutan-2-yl)amino)-2-((1,3-dimethyl-1H-indazol-5-yl)amino)-5-fluoronicotinamide], the IC50 is below 10 nM in assay [1] and 65 to 130 nM in assay [2].

The record behind these values is patent US9051310B2, “Nicotinamide derivative or salt thereof” (FUJIFILM Corporation, priority 2011, dated 2015).
